Data as given in publication PMC8578629, “Photoactivated cell-killing amino-based flavylium compounds” (Scientific Reports, 2021).

How the values were obtained:
[1] = Oxygen singlet production by Singlet Oxygen Sensor Green assay; settings: for ^1O2 production: compound 25 μM, after white light irradiation 79.2 J cm^−2
Description: The production of singlet oxygen by the different amino-based compounds in solution was determined as follows: a stock solution of Singlet Oxygen Sensor Green was prepared at 5 mM in methanol (MeOH). Working solutions of the probe were prepared at 2 mM in 100 mM pH 7.5 Tris buffer and in 100 mM pH 7.5 Tris buffer with 10 mM of Sodium Azide. The compounds were then prepared at a stock concentration of 500 μM and the working solutions were prepared in 100 mM pH 7.5 Tris buffer and in 100 mM pH 7.5 Tris buffer with 10 mM of Sodium Azide. 1 μL of Singlet Oxygen Sensor Green working solutions and 100 μL of compounds solution were mixed to a final volume of 1000 μL (in 100 mM pH 7.5 Tris buffer or in 100 mM pH 7.5 Tris buffer with 10 mM of Sodium Azide). 100 μL of each solution was then added to a 96-well black plate and 100 μL of Deuterium Oxide was added for a final concentration of 1 μM Singlet Oxygen Sensor Green and 25 μM for the different amino-based compounds. The fluorescence was then registered in a spectrofluorometer using excitation/emission of 488/525 nm. After this procedure, the wells were irradiated with a white light source with a total of 79.2 J cm^−2, corresponding to a total irradiation time of 1 h (6 pulses of 10 min) and then, the fluorescence determined using the same excitation/emission pair. As a positive control, Methylene Blue was used at a final concentration of 10 μM. The oxygen singlet production methodology was performed in a dark room.

[2] = Fluorescence quantum yield by the absolute method (integrating sphere); type: physicochemical; settings: in DMSO
Description: Based on the absorbance maxima of the different compounds (Fig. S2), the measurement of the quantum yield (QY) of the synthesized flavylium derivatives was performed using a calibrated Quantaurus-QY stand-alone integrating sphere setup C11347-11 (Hamamatsu Photonics, Hamamatsu, Japan) equipped with an integration sphere, a monochromator, a spectrograph, a 150 W xenon light source and a silicon charge coupled device. Each compound was dissolved in DMSO and diluted to ensure an absorbance of 0.1 from the λmax of excitation forward. Each compound was then irradiated at the corresponding wavelength and the absolute quantum yield determined. The fluorescence spectra was also recorded (Fig. S3). For each compound, four independent experiments were performed.

[3] = test system: HaCaT cells; assay: Reactive oxygen species production (DCF-DA); type: cell-based, human; settings: 25 μM, 6.6 J cm^−2, versus control cells
Description: Cells reactive oxygen species (ROS) production was evaluated following the standard method. Briefly, cells were seed at a density of 4 × 10^4 cells/mL onto 96 well plates and after 24 h the compounds were added at 25 μM (non-toxic concentration) and the same previous procedure for the photoactivation assays was followed. After that, cells were washed twice in Hank’s Buffered Saline Solution (HBSS) and incubated with 100 μL of 50 μM 2′,7′-dichlorodihydrofluorescein diacetate (DCF‐DA) for 30 min in the same previous conditions. For positive control, cells were treated with 100 μM H2O2 for 30 min prior to the addition of DCF-DA. Cells were then washed twice with HBSS and incubated with fresh DMEM medium for 24 h. After this period, the fluorescence intensity at […] (ex/em) was determined in a FlexStation 3 Multi-Mode Microplate Reader.

[4] = test system: HaCaT cells; assay: Cellular photoactivation assay (white light or dark, Alamar Blue); type: cell-based, human
Description: A white light LED homemade device prototype has 96 LEDs appropriately arranged on a plate of 13 cm length × 8 cm width, with a distance from the microplate surface of 8 cm. The prototype has an irradiance of 21 W m^−2 and a wavelength range of 408–707 nm (Fig. S4).
For the cellular photoactivation assays, the white light source of 21 W m^−2 was used. Briefly, cells were seed at a density of 4 × 10^4 cells/mL onto 96 –well plates and after 24 h the compounds were added to the plates in different concentrations (6.25–100 μM) and incubated for a period of 4 h at 37 °C in an atmosphere of 5% CO2 and in the presence of DMEM with 2% FBS. After this period, the medium with the compounds was removed and fresh medium (DMEM with 2% FBS without phenol red (DMEM_2% FBS_w/o_PR) was added to cells. Following this procedure, cells were submitted to light irradiation, the selected light source at a height of 8 cm, in a chamber designed to ensure the same light quantity for each well during the treatment. Cells were irradiated for 10 min at an intensity of 50%, at room temperature (making a total energy exposition of 6.6 J cm^−2). The dark treatment was prepared by placing the plates for 10 min in a dark box at room temperature. After this, the 96 well plates were placed in an incubator at 37 °C in an atmosphere of 5% CO2 for 24 h. Then, to determine cell survival the Alamar Blue assay was performed as follows: after the 24 h, 20 μL of a solution of Resazurin (0.15 mg mL^−1 in PBS filtered in 0.22 μm filters) were added to each well (making a total volume of 120 μL per well), and the plates were incubated between 4–6 h (until the development of visible color change from violet to pink). The fluorescence intensity of each well was then determined at 560/590 nm (ex/em) (FlexStation 3 Multi-Mode Microplate Reader).

[5] = Molar absorption coefficient (ɛ) at 630 nm; type: physicochemical
Description: The molar extinction coefficient or molar absorption (ɛ), of all synthesized pigments was determined in three different solvents (ethanol, methanol and DMSO). For each pigment, in each solvent, a range of concentrations was prepared and then the spectrum of each solution was read. Finally, the respective absorbances (collected at 630 nm) were represented as a function of concentration and the ɛ value was taken from the slope value of the equation curve.

[6] = MTT cytotoxicity assay, fibroblasts; type: cell-based; settings: human, HFF-1 cells (fibroblasts), HFF-1, proliferation condition, dark
Description: (§1) The cytotoxicity of amino-based flavylium compounds to HFF-1 (ATCC Number: SCRC-1041) and HaCaT cells was evaluated using the standard MTT assay. Briefly, cells were seeded at a density of 8 × 10^5 and 4 × 10^4 cells/mL, respectively, in 96-well plate and incubated at 37 °C in a 5% CO2 atmosphere. Cells were allowed to grow for 24 h or until reaching monolayer confluency, and serially diluted compound solutions (6.3–100 µM) were added to the plate wells. The stock solutions of each compound were prepared at 200 mM in DMSO, the maximum % of DMSO in the cells was 0.05%. Then, cells were incubated for 48 h at 37 °C, after which the plate wells were washed once with phosphate buffered saline (PBS, Sigma-Aldrich), followed by addition of a 0.45 mg/mL MTT solution to each well. Crystals were allowed to form for 1.5 h. The reaction was stopped by rejecting the medium followed by the addition of 100 µL of DMSO (Sigma-Aldrich). The absorbance was read at 570 nm in FlexStation 3 Multi-Mode Microplate Reader (Molecular Devices, California, USA).

[7] = MTT cytotoxicity assay, keratinocytes; type: cell-based; settings: human, HaCaT cells (keratinocytes), dark
Description: as §1

| Compound | ^1O2 production [1] | Quantum yield of fluorescence (Φf), mean ± SD [2] | ROS production upon white light irradiation (in words) [3] | Dark cytotoxicity to HaCaT cells (in words) ([4]; 4 h incubation, 6.25–100 μM applied, dark) | Photoactivation, dark versus white light (in words) ([4]; 4 h incubation, 6.25–100 μM applied, white light 6.6 J cm^−2) | Molar absorption coefficient ɛ at 630 nm ([5]; DMSO) | Molar absorption coefficient ɛ at 630 nm ([5]; Ethanol) | Molar absorption coefficient ɛ at 630 nm ([5]; Methanol) | IC50 at 48 h [6] [µM] | IC50 at 48 h ([7]; monolayer confluence) [µM] | IC50 at 48 h ([7]; proliferation) [µM] | Reduction of cell survival upon light irradiation ([4]; applied concentration 6.25 and 12.5 μΜ) | Cell survival ([4]; either in the presence or absence of light, highest concentration tested) [%] | ^1O2 production yield, times higher (positive control) ([1]; 10 μM, same amount of light irradiation) |
| --- | --- | --- | --- | --- | --- | --- | --- | --- | --- | --- | --- | --- | --- | --- |
| CN(C)c1ccc(/C=C/c2ccc3c(O)cc(O)cc3[o+]2)cc1 [5,7OHst4′NMe2, 5,7-dihydroxy-2-(4′-dimethylaminostyryl)-benzopyrylium] | non-significant enhancement | undetectable | did not modulate the production of ROS | did not present significant effects | not photoactivated | 15,224 M^−1 cm^−1 | 16,422 M^−1 cm^−1 | 15,224 M^−1 cm^−1 |  |  |  |  |  |  |
| CN(C)c1ccc(-c2ccc3c(O)cccc3[o+]2)cc1 [5OH4′NMe2, 5-hydroxy-4′-(dimethylamino)-benzopyrylium] | non-significant enhancement | undetectable | significantly increased |  |  |  |  |  | 47.25 ± 0.21 | 47.3 ± 0.3 | 14.9 ± 0.1 | less than 20% | 40 |  |
| CN(C)c1ccc2nc3ccc(=[N+](C)C)cc-3sc2c1 [methylene blue, Methylene Blue, reference compound] |  |  |  |  |  |  |  |  |  |  |  |  |  | about 5 fold |
